Data published in patent US8461083B2, “Herbicidal compounds” (Syngenta Limited, priority 2008, dated 2013).

Experiments:
Type in all cases: in vivo
[1] = system: Amaranthus retoflexus (AMARE); assay: Post-emergence herbicidal glasshouse test; settings: post-emergence (sprayed after 8 days cultivation), evaluated after 13 days, 100=total damage to plant, 0=no damage to plant; for POST Application AMARE, damage to plant: 1000 g/ha; for pest or weed control at 1000 g/ha: Amaranthus retroflexus, 312 h, read-out: POST Application AMARE, damage to plant
Procedure, shortened: (§1)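 Pots of SETFA, SOLNI, AMARE and ALOMY sprayed 1 day (pre-) or 8 days (post-emergence) after sowing at 1000 g/ha, formulated in acetone/water (50:50) with 0.5% Tween 20. Glasshouse at 24/16° C day/night, 14 h light, 65% humidity. Damage scored 0–100 after 13 days.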

[2] = system: Alopecurus myosuroides (ALOMY); assay: Post-emergence herbicidal glasshouse test; settings: post-emergence (sprayed after 8 days cultivation), evaluated after 13 days, 100=total damage to plant, 0=no damage to plant; for POST Application ALOMY, damage to plant: 1000 g/ha; for pest or weed control at 1000 g/ha: Alopecurus myosuroides, 312 h, read-out: POST Application ALOMY, damage to plant
Procedure, shortened: as §1

[3] = system: Solanum nigrum (SOLNI); assay: Post-emergence herbicidal glasshouse test; settings: post-emergence (sprayed after 8 days cultivation), evaluated after 13 days, 100=total damage to plant, 0=no damage to plant; for POST Application SOLNI, damage to plant: 1000 g/ha; for pest or weed control at 1000 g/ha: Solanum nigrum, 312 h, read-out: POST Application SOLNI, damage to plant
Procedure, shortened: as §1

[4] = system: Setaria faberi (SETFA); assay: Post-emergence herbicidal glasshouse test; settings: post-emergence (sprayed after 8 days cultivation), evaluated after 13 days, 100=total damage to plant, 0=no damage to plant; for POST Application SETFA, damage to plant: 1000 g/ha; for pest or weed control at 1000 g/ha: Setaria faberi, 312 h, read-out: POST Application SETFA, damage to plant
Procedure, shortened: as §1

[5] = system: Echinochloa crus-galli (ECHCG); assay: Post-emergence herbicidal glasshouse test; settings: post-emergence (sprayed after 8 days cultivation), evaluated after 13 days, 100=total damage to plant, 0=no damage to plant; for POST Application ECHCG, damage to plant: 1000 g/ha; for pest or weed control at 1000 g/ha: Echinochloa crus-galli, 312 h, read-out: POST Application ECHCG, damage to plant
Procedure, shortened: (§2)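 Damage rated 13 days after application on a 0 (none) to 100 (total) scale. Compounds went on at 1000 g/ha in acetone/water 50:50 plus 0.5% Tween 20, one day post-sowing for pre-emergence or eight days for post-emergence. Plants grown at 24/16° C, 14 h light, 65% humidity.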

[6] = system: Amaranthus retoflexus (AMARE); assay: Pre-emergence herbicidal glasshouse test; settings: pre-emergence (sprayed after one day cultivation), evaluated after 13 days, 100=total damage to plant, 0=no damage to plant; for PRE Application AMARE, damage to plant: 1000 g/ha; for pest or weed control at 1000 g/ha: Amaranthus retroflexus, 312 h, read-out: PRE Application AMARE, damage to plant
Procedure, shortened: as §1

[7] = system: Alopecurus myosuroides (ALOMY); assay: Pre-emergence herbicidal glasshouse test; settings: pre-emergence (sprayed after one day cultivation), evaluated after 13 days, 100=total damage to plant, 0=no damage to plant; for PRE Application ALOMY, damage to plant: 1000 g/ha; for pest or weed control at 1000 g/ha: Alopecurus myosuroides, 312 h, read-out: PRE Application ALOMY, damage to plant
Procedure, shortened: as §1

[8] = system: Solanum nigrum (SOLNI); assay: Pre-emergence herbicidal glasshouse test; settings: pre-emergence (sprayed after one day cultivation), evaluated after 13 days, 100=total damage to plant, 0=no damage to plant; for PRE Application SOLNI, damage to plant: 1000 g/ha; for pest or weed control at 1000 g/ha: Solanum nigrum, 312 h, read-out: PRE Application SOLNI, damage to plant
Procedure, shortened: as §1

[9] = system: Setaria faberi (SETFA); assay: Pre-emergence herbicidal glasshouse test; settings: pre-emergence (sprayed after one day cultivation), evaluated after 13 days, 100=total damage to plant, 0=no damage to plant; for PRE Application SETFA, damage to plant: 1000 g/ha; for pest or weed control at 1000 g/ha: Setaria faberi, 312 h, read-out: PRE Application SETFA, damage to plant
Procedure, shortened: as §1

[10] = system: Echinochloa crus-galli (ECHCG); assay: Pre-emergence herbicidal glasshouse test; settings: pre-emergence (sprayed after one day cultivation), evaluated after 13 days, 100=total damage to plant, 0=no damage to plant; for PRE Application ECHCG, damage to plant: 1000 g/ha; for pest or weed control at 1000 g/ha: Echinochloa crus-galli, 312 h, read-out: PRE Application ECHCG, damage to plant
Procedure, shortened: as §2

Compound | POST Application AMARE, damage to plant [1] | POST Application ALOMY, damage to plant [2] | POST Application SOLNI, damage to plant [3] | POST Application SETFA, damage to plant [4] | POST Application ECHCG, damage to plant [5] | PRE Application AMARE, damage to plant [6] | PRE Application ALOMY, damage to plant [7] | PRE Application SOLNI, damage to plant [8] | PRE Application SETFA, damage to plant [9] | PRE Application ECHCG, damage to plant [10] | pest or weed control at 1000 g/ha [1] | pest or weed control at 1000 g/ha [2] | pest or weed control at 1000 g/ha [3] | pest or weed control at 1000 g/ha [4] | pest or weed control at 1000 g/ha [5] | pest or weed control at 1000 g/ha [6] | pest or weed control at 1000 g/ha [7] | pest or weed control at 1000 g/ha [8] | pest or weed control at 1000 g/ha [9] | pest or weed control at 1000 g/ha [10]
CCc1ccc2cc(C(=O)C3C(=O)CCCC3=O)c(C(F)(F)F)nc2n1 [Compound 1.3, 2-[7-ethyl-trifluoromethyl-[1,8]-naphthyridine-3-carbony]-cyclohexane-1,3-dione] | 100 | 70 | 90 | 90 | 80 | 90 | 80 | 100 | 80 | 100 | – | – | – | – | – | – | – | – | – | –
N#CCn1c(=O)ccc2cc(C(=O)C3C(=O)CCCC3=O)c(C(F)(F)F)nc21 [Compound 2.3] | 90 | 20 | 90 | 90 | 80 | 90 | 20 | 90 | 60 | 80 | – | – | – | – | – | – | – | – | – | –
CCN(CC)c1nc2nc(C(F)(F)F)c(C(=O)C3C(=O)CCCC3=O)cc2cc1F [Compound 1.73, 2-[7-(diethylamino)-6-fluoro-2-trifluoromethyl-[1,8]-naphthyridine-3-carbony]-cyclohexane-1,3-dione] | – | – | – | – | – | – | – | – | – | – | 70% | 60% | 70% | 80% | 80% | 70% | 60% | 100% | 100% | 100%
CC(C)Cc1nc2nc(C(F)(F)F)c(C(=O)C3C(=O)CCCC3=O)cc2cc1F [Compound 1.70, 2-[6-fluoro-7-(2-methylpropyl)-2-trifluoromethyl-[1,8]-naphthyridine-3-carbony]-cyclohexane-1,3-dione] | 90 | 90 | 80 | 90 | 90 | 40 | 90 | 100 | 100 | 100 | – | – | – | – | – | – | – | – | – | –
O=C(Cn1c(=O)ccc2cc(C(=O)C3C(=O)CCCC3=O)c(C(F)(F)F)nc21)c1ccccc1 [Compound 2.6, 2-{8-(2-phenyl-2-oxo-ethyl)-7-oxo-7,8-dihydro-2-trifluoromethyl-[1,8]-naphthyridine-3-carbony}-cyclohexane-1,3-dione] | 90 | 40 | 90 | 70 | 70 | 60 | 20 | 90 | 10 | 40 | – | – | – | – | – | – | – | – | – | –
COC(C)c1ccc2cc(C(=O)C3C(=O)CCCC3=O)c(C(F)(F)F)nc2n1 (stereo not shown) [Compound 1.63, 2-[7-(1-methoxyethyl)-2-trifluoromethyl-[1,8]-naphthyridine-3-carbony]-cyclohexane-1,3-dione] | 100 | 90 | 80 | 90 | 90 | 100 | 70 | 100 | 100 | 100 | – | – | – | – | – | – | – | – | – | –
Cc1nc2nc(C(F)F)c(C(=O)C3C(=O)CCCC3=O)cc2cc1F [Compound 1.78, 2-(2-difluoromethyl-6-fluoro-7-methyl-[1,8]-naphthyridine-3-carbonyl)-cyclohexane-1,3-dione] | – | – | – | – | – | – | – | – | – | – | 100% | 60% | 80% | 90% | 90% | 100% | 80% | 100% | 100% | 100%
O=C(c1cc2cc(F)c(O)nc2nc1C(F)(F)F)C1C(=O)C2CCC(C2)C1=O (stereo not shown) [Compound 3.1] | – | – | – | – | – | – | – | – | – | – | 80% | 60% | 80% | 80% | 70% | 100% | 60% | 100% | 90% | 90%
CCOC(F)(F)c1nc2nc(C)c(F)cc2cc1C(=O)C1C(=O)CCCC1=O [Compound 1.102, 2-[2-(Ethoxydifluoromethyl)-6-fluoro-7-methyl-[1,8]-naphthyridine-3-carbonyl]-cyclohexane-1,3-dione] | – | – | – | – | – | – | – | – | – | – | 90% | 60% | 60% | 80% | 80% | 100% | 30% | 100% | 100% | 90%
CS(=O)(=O)c1ccc2cc(C(=O)C3C(=O)CCCC3=O)c(C(F)(F)F)nc2n1 [Compound 1.20] | – | – | – | – | – | – | – | – | – | – | 80% | 20% | 100% | 100% | 90% | 30% | 20% | 100% | 80% | 70%
